Source: patent publication US9695155B2, “Herbicidal substituted pyrimidinyloxy benzene compounds” (E. I. DU PONT DE NEMOURS AND COMPANY, priority 2013, dated 2017)

Experiments:
[1] = tested on: canarygrass; experiment: Test D preemergence; format: in vivo, Phalaris minor
Source text: (§1) Seeds of plant species selected from bluegrass (annual bluegrass, Poa annua), blackgrass (Alopecurus myosuroides), canarygrass (littleseed canarygrass, Phalaris minor), chickweed (common chickweed, Stellaria media), galium (catchweed bedstraw, Galium aparine), bromegrass, downy (downy bromegrass, Bromus tectorum), field poppy (Papaver rhoeas), field violet (Viola arvensis), green foxtail (Setaria viridis), deadnettle (henbit deadnettle, Lamium amplexicaule), Italian ryegrass (Lolium multiflorum), kochia (Kochia scoparia), lambsquarters (Chenopodium album), oilseed rape (Brassica napus), pigweed (Amaranthus retroflexus), chamomile (scentless chamomile, Matricaria inodora), Russian thistle (Salsola kali), speedwell (bird's-eye speedwell, Veronica persica), spring barley (Hordeum vulgare), spring wheat (Triticum aestivum), wild buckwheat (Polygonum convolvulus), wild mustard (Sinapis arvensis), wild oat (Avena fatua), wild radish (Raphanus raphanistrum), windgrass (Apera spica-venti), winter barley (Hordeum vulgare), and winter wheat (Triticum aestivum) were planted into a silt loam soil and treated preemergence with test chemicals formulated in a non-phytotoxic solvent mixture which included a surfactant.
(§2) At the same time, these species were planted in pots containing Redi-Earth® planting medium (Scotts Company, 14111 Scottslawn Road, Marysville, Ohio 43041) comprising spaghnum peat moss, vermiculite, wetting agent and starter nutrients and treated with postemergence applications of the test chemicals formulated in the same manner. Plants ranged in height from 2 to 18 cm (1- to 4-leaf stage). Treated plants and controls were maintained in a controlled growth environment for 7 to 21 days after which time all species were compared to controls and visually evaluated. Plant response ratings, summarized in Table D, are based on a scale of 0 to 100 where 0 is no effect and 100 is complete control. A dash (-) response means no test result.

[2] = tested on: bromegrass, downy; experiment: Test D preemergence; format: in vivo, Bromus tectorum
Source text: as §1, §2

[3] = tested on: deadnettle; experiment: Test D preemergence; format: in vivo, Lamium amplexicaule
Source text: as §1, §2

[4] = tested on: Italian ryegrass; experiment: Test D preemergence; format: in vivo, Lolium multiflorum
Source text: as §1, §2

[5] = tested on: spring barley; experiment: Test D preemergence; format: in vivo, Hordeum vulgare
Source text: as §1, §2

[6] = tested on: winter barley; experiment: Test D preemergence; format: in vivo, Hordeum vulgare
Source text: as §1, §2

[7] = tested on: chickweed; experiment: Test D postemergence; format: in vivo, Stellaria media
Source text: as §1, §2

[8] = tested on: field violet; experiment: Test D postemergence; format: in vivo, Viola arvensis
Source text: as §1, §2

[9] = tested on: pigweed; experiment: Test D postemergence; format: in vivo, Amaranthus retroflexus
Source text: as §1, §2

[10] = 16 g ai/ha, scale 0 (no effect) to 100 (complete control)
[11] = 31 g ai/ha, scale 0 to 100 (0 no effect, 100 complete control)
[12] = 62 g ai/ha, scale 0 to 100 (0 no effect, 100 complete control)
[13] = 125 g ai/ha, scale 0 to 100 (0 no effect, 100 complete control)
[14] = 250 g ai/ha, scale 0 to 100 (0 no effect, 100 complete control)

Clc1cnc(Oc2ccccc2-n2cc(Cl)cn2)nc1 [Compound 3]
Plant response rating, Canarygrass [1, 10]: 0
Plant response rating, Canarygrass ([1]; 31 g ai/ha, scale 0-100): 0
Plant response rating, Canarygrass ([1]; 62 g ai/ha, scale 0-100): 0
Plant response rating, Canarygrass ([1]; 125 g ai/ha, scale 0-100): 0
Plant response rating, Canarygrass ([1]; 250 g ai/ha, scale 0-100): 25
Plant response rating, Bromegrass, Downy [2, 10]: 0
Plant response rating, Bromegrass, Downy ([2]; 31 g ai/ha, scale 0-100): 0
Plant response rating, Bromegrass, Downy ([2]; 62 g ai/ha, scale 0-100): 0
Plant response rating, Bromegrass, Downy ([2]; 125 g ai/ha, scale 0-100): 0
Plant response rating, Bromegrass, Downy ([2]; 250 g ai/ha, scale 0-100): 0
Plant response rating, Deadnettle [3, 10]: 30
Plant response rating, Deadnettle ([3]; 31 g ai/ha, scale 0-100): 30
Plant response rating, Deadnettle ([3]; 62 g ai/ha, scale 0-100): 40
Plant response rating, Deadnettle ([3]; 125 g ai/ha, scale 0-100): 40
Plant response rating, Deadnettle ([3]; 250 g ai/ha, scale 0-100): 50
Plant response rating, Ryegrass, Italian [4, 10]: 0
Plant response rating, Ryegrass, Italian ([4]; 31 g ai/ha, scale 0 (no effect) to 100 (complete control)): 0
Plant response rating, Ryegrass, Italian ([4]; 62 g ai/ha, scale 0-100): 0
Plant response rating, Ryegrass, Italian ([4]; 125 g ai/ha, scale 0-100): 0
Plant response rating, Ryegrass, Italian ([4]; 250 g ai/ha, scale 0-100): 0
Plant response rating, Barley, Spring [5, 10]: 0
Plant response rating, Barley, Spring ([5]; 31 g ai/ha, scale 0-100): 0
Plant response rating, Barley, Spring ([5]; 62 g ai/ha, scale 0-100): 0
Plant response rating, Barley, Spring ([5]; 125 g ai/ha, scale 0-100): 0
Plant response rating, Barley, Spring ([5]; 250 g ai/ha, scale 0-100): 0
Plant response rating, Barley, Winter [6, 10]: 0
Plant response rating, Barley, Winter ([6]; 31 g ai/ha, scale 0-100): 0
Plant response rating, Barley, Winter ([6]; 62 g ai/ha, scale 0-100): 0
Plant response rating, Barley, Winter ([6]; 125 g ai/ha, scale 0-100): 10
Plant response rating, Barley, Winter ([6]; 250 g ai/ha, scale 0-100): 20
Plant response rating, Chickweed ([7]; 16 g ai/ha, scale 0-100): 40
Plant response rating, Chickweed [7, 11]: 0
Plant response rating, Chickweed [7, 12]: 25
Plant response rating, Chickweed [7, 13]: 30
Plant response rating, Chickweed [7, 14]: 40
Plant response rating, Field Violet ([8]; 16 g ai/ha, scale 0-100): 20
Plant response rating, Field Violet [8, 11]: 5
Plant response rating, Field Violet [8, 12]: 5
Plant response rating, Field Violet [8, 13]: 5
Plant response rating, Field Violet [8, 14]: 20
Plant response rating, Pigweed ([9]; 16 g ai/ha, scale 0-100): 70
Plant response rating, Pigweed [9, 11]: 70
Plant response rating, Pigweed [9, 12]: 70
Plant response rating, Pigweed [9, 13]: 70
Plant response rating, Pigweed [9, 14]: 90

Fc1cccc(Oc2ncc(Cl)cn2)c1-n1cc(Br)cn1 [Compound 178, 2-[2-(4-bromo-1H-pyrazol-1-yl)-3-fluorophenoxy]-5-chloropyrimidine]
pest or weed control at 16 g/ha ([1]; Phalaris minor, pre-emergence, 16 g ai/ha, scale 0 (no effect) to 100 (complete control), read-out: Plant response rating, Canarygrass): 10%
pest or weed control at 31 g/ha ([1]; Phalaris minor, pre-emergence, 31 g ai/ha, scale 0-100, read-out: Plant response rating, Canarygrass): 60%
pest or weed control at 62 g/ha ([1]; Phalaris minor, pre-emergence, 62 g ai/ha, scale 0-100, read-out: Plant response rating, Canarygrass): 60%
pest or weed control at 125 g/ha ([1]; Phalaris minor, pre-emergence, 125 g ai/ha, scale 0-100, read-out: Plant response rating, Canarygrass): 95%
pest or weed control at 16 g/ha ([2]; Bromus tectorum, pre-emergence, 16 g ai/ha, scale 0 (no effect) to 100 (complete control), read-out: Plant response rating, Bromegrass, Downy): 0%
pest or weed control at 31 g/ha ([2]; Bromus tectorum, pre-emergence, 31 g ai/ha, scale 0-100, read-out: Plant response rating, Bromegrass, Downy): 0%
pest or weed control at 62 g/ha ([2]; Bromus tectorum, pre-emergence, 62 g ai/ha, scale 0-100, read-out: Plant response rating, Bromegrass, Downy): 0%
pest or weed control at 125 g/ha ([2]; Bromus tectorum, pre-emergence, 125 g ai/ha, scale 0-100, read-out: Plant response rating, Bromegrass, Downy): 10%
pest or weed control at 16 g/ha ([3]; Lamium amplexicaule, pre-emergence, 16 g ai/ha, scale 0 (no effect) to 100 (complete control), read-out: Plant response rating, Deadnettle): 50%
pest or weed control at 31 g/ha ([3]; Lamium amplexicaule, pre-emergence, 31 g ai/ha, scale 0-100, read-out: Plant response rating, Deadnettle): 60%
pest or weed control at 62 g/ha ([3]; Lamium amplexicaule, pre-emergence, 62 g ai/ha, scale 0-100, read-out: Plant response rating, Deadnettle): 75%
pest or weed control at 125 g/ha ([3]; Lamium amplexicaule, pre-emergence, 125 g ai/ha, scale 0-100, read-out: Plant response rating, Deadnettle): 100%
pest or weed control at 16 g/ha ([4]; Lolium multiflorum, pre-emergence, 16 g ai/ha, scale 0 (no effect) to 100 (complete control), read-out: Plant response rating, Ryegrass, Italian): 0%
pest or weed control at 31 g/ha ([4]; Lolium multiflorum, pre-emergence, 31 g ai/ha, scale 0 (no effect) to 100 (complete control), read-out: Plant response rating, Ryegrass, Italian): 0%
pest or weed control at 62 g/ha ([4]; Lolium multiflorum, pre-emergence, 62 g ai/ha, scale 0-100, read-out: Plant response rating, Ryegrass, Italian): 15%
pest or weed control at 125 g/ha ([4]; Lolium multiflorum, pre-emergence, 125 g ai/ha, scale 0-100, read-out: Plant response rating, Ryegrass, Italian): 20%
pest or weed control at 16 g/ha ([7]; Stellaria media, post-emergence, 16 g ai/ha, scale 0-100, read-out: Plant response rating, Chickweed): 55%
pest or weed control at 31 g/ha ([7]; Stellaria media, post-emergence, 31 g ai/ha, scale 0 to 100 (0 no effect, 100 complete control), read-out: Plant response rating, Chickweed): 60%
pest or weed control at 62 g/ha ([7]; Stellaria media, post-emergence, 62 g ai/ha, scale 0 to 100 (0 no effect, 100 complete control), read-out: Plant response rating, Chickweed): 65%
pest or weed control at 125 g/ha ([7]; Stellaria media, post-emergence, 125 g ai/ha, scale 0 to 100 (0 no effect, 100 complete control), read-out: Plant response rating, Chickweed): 75%
pest or weed control at 16 g/ha ([8]; Viola arvensis, post-emergence, 16 g ai/ha, scale 0-100, read-out: Plant response rating, Field Violet): 50%
pest or weed control at 31 g/ha ([8]; Viola arvensis, post-emergence, 31 g ai/ha, scale 0 to 100 (0 no effect, 100 complete control), read-out: Plant response rating, Field Violet): 60%
pest or weed control at 62 g/ha ([8]; Viola arvensis, post-emergence, 62 g ai/ha, scale 0 to 100 (0 no effect, 100 complete control), read-out: Plant response rating, Field Violet): 65%
pest or weed control at 125 g/ha ([8]; Viola arvensis, post-emergence, 125 g ai/ha, scale 0 to 100 (0 no effect, 100 complete control), read-out: Plant response rating, Field Violet): 70%
pest or weed control at 16 g/ha ([9]; Amaranthus retroflexus, post-emergence, 16 g ai/ha, scale 0-100, read-out: Plant response rating, Pigweed): 75%
pest or weed control at 31 g/ha ([9]; Amaranthus retroflexus, post-emergence, 31 g ai/ha, scale 0 to 100 (0 no effect, 100 complete control), read-out: Plant response rating, Pigweed): 80%
pest or weed control at 62 g/ha ([9]; Amaranthus retroflexus, post-emergence, 62 g ai/ha, scale 0 to 100 (0 no effect, 100 complete control), read-out: Plant response rating, Pigweed): 85%
pest or weed control at 125 g/ha ([9]; Amaranthus retroflexus, post-emergence, 125 g ai/ha, scale 0 to 100 (0 no effect, 100 complete control), read-out: Plant response rating, Pigweed): 90%
